Data from article PMC4336331, “Novel Receptor-Derived Cyclopeptides to Treat Heart Failure Caused by Anti-β1-Adrenoceptor Antibodies in a Human-Analogous Rat Model” (PLoS ONE, 2015).
Peptide text beside a SMILES is read from it.

How the values were obtained:
[1] = test system: IL1-β, TGF-β1 transcripts; experiment: qRT-PCR of cardiac profibrotic markers, therapy-study; format: in vivo, Lewis/CrlBR rats; details: qRT-PCR of apical cardiac tissues, normalised to controls (Fig. 3D)
Description: Total RNA was isolated from frozen myocardium by RNeasy mini Kit (Qiagen, Hilden, Germany). Reverse transcription of total RNA isolated from frozen myocardium was performed in 96-well plates utilising a high capacity RNA-to-cDNA master mix (Applied Biosystems, Foster City, CA). PCR reactions were conducted in the presence of the fluorescent dye Sybr-Green (Cambrex BioScience, East Rutherford, NY) and the reference-dye 6-carboxy-X-rhodamine (ROX) using an ABI PRISM sequence detection system 7700 (Applied Biosystems). All amplification products were controlled for specificity by running a melting curve analysis; results were calculated using the 2^-ΔΔCT method. The relative expression levels were derived from a standard curve and normalised to GAPDH as an endogenous control. Quantitative real-time PCR (qRT-PCR) analyses are presented as fold change compared to untreated (0.9% NaCl-injected) control hearts. […]
Fig 3 Histology of rat hearts (therapy-study). […] (B) Quantification of fibrotic scars in midventricular 2μm-sections (mvhs, mid-ventricular heart-section). […] For all parameters shown, differences between the treatment-groups were assessed by […] one way ANOVA and Dunnett`s post-hoc test; *p<0.05; **p<0.001.

[2] = test system: anti-β1EC2-induced heart failure (β1EC2/GST-FP-immunised rats); experiment: Relative organ wet weights and body weight, prevention-study; details: month 16, mean ±SEM
Description: (§1) In brief, n = 76 two months old Lewis/CrlBR rats were either s.c. immunised with 50 μg β1EC2/GST-FP, or n = 38 rats were control-injected with 0.9% NaCl (t = 0). To maintain high anti-β1EC2-titers, all immunised rats were boosted with β1EC2/GST-FP (or 0.9% NaCl) every month over 20 months as previously described. Application of the different linear or cyclic β1-AR peptides (corresponding to the primary AA-sequence of either the first (β1EC1) or the 2nd extra-cellular β1-AR loop (β1EC2)) or the β1-receptor blocker bisoprolol was initiated either 6 weeks after the 1st immunisation (i.e. 15 days after the 1st boost, prevention-study), or 8.5 months after the 1st immunisation (therapy-study).
After the hearts all other relevant inner organs (e.g., lung, liver, spleen, kidneys, brain, and eyes) were removed, rinsed with ice-cold PBS, weighed, sectioned, and fixed for further histologic analysis.

[3] = test system: heart rate; experiment: Bisoprolol titration pre-experiments, heart rate; format: in vivo, Lewis/CrlBR rats
Description: as §1

[4] = immunised anti-β1EC2-positive rats, from 6 weeks after 1st immunisation EC2-CP 1.0 mg/kg i.v. every 4 weeks or bisoprolol 15 mg/kg/day orally over 12 months
[5] = non-immunised 0.9% NaCl-injected rats, EC2-CP 1.0 mg/kg i.v. every 4 weeks or bisoprolol 15 mg/kg/day orally over 12 months

SMILES | reduction of the increases in cardiac transcripts of profibrotic markers (IL1-β, TGF-β1) [1] [%] | Heart, relative (wet) weight [2, 4] [mg/g] | Kidney L, relative (wet) weight [2, 4] [mg/g] | Kidney R, relative (wet) weight [2, 4] [mg/g] | Liver, relative (wet) weight [2, 4] [mg/g] | Lung, relative (wet) weight [2, 4] [mg/g] | Spleen, relative (wet) weight [2, 4] [mg/g] | Weight (body weight) [2, 4] [g] | Heart, relative (wet) weight [2, 5] [mg/g] | Kidney L, relative (wet) weight [2, 5] [mg/g] | Kidney R, relative (wet) weight [2, 5] [mg/g] | Liver, relative (wet) weight [2, 5] [mg/g] | Lung, relative (wet) weight [2, 5] [mg/g] | Spleen, relative (wet) weight [2, 5] [mg/g] | Weight (body weight) [2, 5] [g] | decrease of heart rate ([3]; oral dose 15 mg/kg/day derived from titration pre-experiments [5/10/15mg]) | heart rate after bisoprolol ([3]; titration pre-experiments [5/10/15mg], 15mg oral, from 236±10 bpm, n = 5, p<0.005) [bpm]
CC(C)NCC(O)COc1ccc(COCCOC(C)C)cc1 (centres unmarked) [bisoprolol, reference compound] | ~50 | 2.55 ± 0.06 | 2.63 ± 0.04 | 2.73 ± 0.07 | 22.63 ± 0.46 | 2.74 ± 0.07 | 1.74 ± 0.05 | 533 ± 27 | 2.50 ± 0.06 | 2.79 ± 0.05 | 2.90 ± 0.07 | 22.33 ± 0.78 | 2.66 ± 0.22 | 1.79 ± 0.05 | 546 ± 8 | at least 10% | 205±9
CC(C)[C@@H]1NC(=O)[C@H](Cc2ccccc2)NC(=O)[C@H](CC(=O)O)NC(=O)[C@H](CS)NC(=O)[C@H](CS)NC(=O)[C@H](CCCCN)NC(=O)[C@@H]2CCCN2C(=O)[C@H](CC(=O)O)NC(=O)[C@H](CC(N)=O)NC(=O)[C@H](Cc2ccc(O)cc2)NC(=O)[C@H](CS)NC(=O)[C@H](CCCNC(=N)N)NC(=O)[C@H](CCCNC(=N)N)NC(=O)[C@H](C)NC(=O)[C@H](CCC(=O)O)NC(=O)[C@H](CC(=O)O)NC(=O)[C@H](CO)NC(=O)[C@H](CCC(=O)O)NC(=O)[C@H](C)NC(=O)[C@H](CCCNC(=N)N)NC(=O)[C@H](C)NC(=O)[C@H](CCC(N)=O)NC(=O)CNC(=O)[C@H](CCCNC(=N)N)NC(=O)[C@H](CC(N)=O)NC(=O)[C@H]([C@@H](C)O)NC1=O [β1EC2-CP] (cyclo(AESDEARRCYNDPKCCDFVTNRGQAR)) | ~50 | 2.46 ± 0.05 | 2.71 ± 0.08 | 2.79 ± 0.06 | 23.59 ± 0.46 | 2.74 ± 0.14 | 1.48 ± 0.05 | 543 ± 24 | 2.50 ± 0.06 | 2.62 ± 0.08 | 2.79 ± 0.01 | 22.51 ± 0.20 | 2.77 ± 0.10 | 1.58 ± 0.15 | 553 ± 11 | – | –
